What is called EC50 is the concentration that produces a half-maximal response.

Like-named read-outs stand apart in the source and are kept apart here. Residues, ends and D or L forms follow the SMILES beside them. *: point of attachment. X1 = O=C(COc1ccc(-c2ccccn2)cc1)NCCCCCCCCN*

Holding throughout (type): cell-based
For experiment [1], the system named is Jurkat cells. As to the kind of experiment: Mitochondrial Ca2+ by flow cytometry with Rhod-2. The protocol: Other characteristic phenomena of paraptosis such as a mitochondrial Ca^2+ overload and loss of mitochondrial membrane potential (ΔΨm) induced by CGP37157 were also examined. Intracellular Ca^2+ concentrations were measured by flow cytometry using red-emitting Ca^2+ probes, Rhod-2 (a mitochondrial Ca^2+ probe) and Rhod-4 (a cytosolic Ca^2+ probe). Jurkat cells were stained with Rhod-2/AM or Rhod-4/AM (at 5 μM) and then treated with CGP37157 (100 μM) or 4 (5 μM) for a given period of incubation, immediately after which the emission intensity of Rhod-2 and Rhod-4 was measured by flow cytometry. […]
In a 1.5 mL Eppendorf tube, Jurkat cells (2.0 × 10^5 cells) were incubated in the presence of Rhod-2/AM (5 μM, 100 μL) or Rhod-4/AM (5 μM, 100 μL) in 10% FBS/RPMI 1640 medium for 30 min at 37 °C under 5% CO2 and then treated with 4 (5 μM, 0–30 min) or CGP37157 (100 μM, 0–6 h) in 10% FBS/RPMI 1640 medium (100 μL) for 30 min at 37 °C under 5% CO2. Immediately after the treatment, 10% FBS/RPMI 1640 medium (300 μL) was added to the cells and the samples were analyzed on a flow cytometer (FACSCalibur cytometer, Becton). The data were analyzed on FlowJo software (FlowJo, LCC).
In general terms: A flow cytometer gives signals particle by particle.

In experiment [2] the test system is Jurkat cells. The protocol:
The cytotoxicity of 4 against Jurkat cells was evaluated by conducting MTT assays [MTT = 3-(4,5-dimethyl-2-thiazolyl)-2,5-diphenyl-2H-tetrazolium bromide] as a function of time and by microscopic observations to determine the appropriate conditions for mechanistic studies of paraptosis (Figure 1).
It was reported that an inhibitor of a mitochondrial Na^+/Ca^2+ exchanger (mNCX), which functions to export Ca^2+ from the mitochondrial matrix to the cytosol in exchange with cytosolic Na^+, affects the mitochondrial Ca^2+ concentration.[60]−[63],[88]−[90] We therefore examined the cytotoxicity of CGP37157 (Chart 2), a typical inhibitor of mNCX,[60],[61],[88]−[90] against Jurkat cells by means of an MTT assay. […] For microscopic observations, Jurkat cells were treated with CGP37157 (100 μM) for 0–24 h, and cell death was observed after treatment with CGP37157 for 12–24 h, by staining with propidium iodide (PI) (Figure 3B).
HeLa S3 and A549 cells (2.0 × 10^4 cells/well) were seeded on a 96-well plate (BD Falcon) in cell culture medium and incubated overnight at 37 °C under 5% CO2. Jurkat (2.0 × 10^4 cells/well), HeLa S3, and A549 cells were treated with 4 (0–25 μM) and CGP37157 (0–100 μM) for 1, 3, 6, 12, and 24 h at 37 °C under 5% CO2, after which a MTT solution in PBS (0.5%, 10 μL) was added to each well.
Statistical analyses of MTT assays were performed by using Graphpad Prism 9 software with the Student’s t test. Data are presented as means ± the standard deviation of three independent experiments, and a P of <0.05 was considered to indicate a statistically significant difference.

Experiment [3] deals with Jurkat cells. As to the kind of experiment: Mitochondrial membrane potential (ΔΨm) by DilC1(5) confocal microscopy. Here is the method: The mitochondrial membrane potential (ΔΨm) was measured by means of DilC1(5) (1,1′,3,3,3′,3′-hexamethylindodicarbocyanine iodide), the emission intensity of which responds to ΔΨm.[95] Jurkat cells were treated with CGP37157 (100 μM) for 1–12 h, stained with DilC1(5) (5 μM) for 30 min, and observed via confocal microscopy. […] The decrease in ΔΨm with 4 was also observed by confocal microscopy (Figure 6B).
In a 1.5 mL Eppendorf tube, Jurkat cells (2.0 × 10^5 cells) were stained with DilC1(5) (500 nM, 100 μL) in 10% FBS/RPMI 1640 medium for 30 min at 37 °C under 5% CO2, followed by the treatment with 4 (5 μM, 100 μL) in the medium for 0–60 min at 37 °C under 5% CO2. For CGP37157, Jurkat cells (2.0 × 10^5 cells) were treated with CGP37157 (100 μM, 100 μL) in 10% FBS/RPMI 1640 medium for 0–12 h at 37 °C under 5% CO2, followed by the treatment with DilC1(5) (500 nM, 100 μL) in PBS. The cells were washed with PBS and observed by confocal microscopy (Fluoview, FV-1000, Olympus) using a Greiner CELLview dish (35 mm × 10 mm). Excitation at 405 nm and emission from 470 to 520 nm were used for 4. Excitation at 635 nm and emission from 650 to 750 nm were used for DilC1(5). The exposure time was 20 μs/pixel.

Take `O=C1CSC(c2ccccc2Cl)c2cc(Cl)ccc2N1` (centres unmarked) [CGP37157]: the “Emission intensity of Rhod-2 (mitochondrial Ca2+)” value in experiment [1] (CGP37157 100 μM, 6 h after treatment) is given as “enhanced”. Besides, the EC50 in experiment [2] (12 h incubation, 10% FBS/RPMI 1640, 37 °C, 5% CO2, read-out: EC50 (MTT, Jurkat cells)) worked out at 74 µM; in experiment [2] (24 h incubation, 10% FBS/RPMI 1640, 37 °C, 5% CO2, read-out: EC50 (MTT, Jurkat cells)) it was 55 µM. In addition, the “Emission of DilC1(5) (ΔΨm)” value in experiment [3] (CGP37157 100 μM, 6 h) is “quenched”.
As to `NCCCC[C@H](NC(=O)[C@H](CCCCN)NC(=O)[C@@H](N)CCCCN)C(=O)NCC(=O)NCC(=O)NCCCCCCCCNC(=O)COc1ccc(-c2ccccn2)cc1` [compound 4] (H-KKKGG-X1), the “Emission intensity of Rhod-2 (mitochondrial Ca2+)” value in experiment [1] (4 at 5 μM, 10–30 min after treatment) is “enhanced”. Further, the EC50 in experiment [2] (1 h) stood at 3.2 µM; in experiment [2] (3 h), 2 µM; in experiment [2] (6 h) it was 1.5 µM; in experiment [2] (12 h) it was 1.2 µM; in experiment [2] (24 h), 1.7 µM. Moreover, the “Emission of DilC1(5) (ΔΨm)” value in experiment [3] (4 at 5 μM, 20 min after treatment) is on record as “decrease in emission intensity”.
